Key:
KRAS G12D = KRAS G12D (Homo sapiens, UniProt P01116, G12D); test: In-vitro RAS-RAF binding assay (RRB), HTRF/FRET; assay type: biochemical; parameters: Biotinylated KRAS protein amino acids 1-169 (produced at Erasca); made in house; conditions: Table 2, average of multiple runs of each compound; read-out: Inhibition of RAS-RAF Binding (in-vitro) KRAS (G12D) IC50
Summary of the method: (§1)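 Compounds preincubated with terbium-labelled biotinylated KRAS (aa 1-169, 30 nM) before 60 min SOS1-catalysed exchange to GTPgS. Binding of the d2-labelled cRAF RBD (30 nM) is read as FRET at equilibrium in duplicate. Buffer: 50 mM HEPES pH 7.5, 100 mM NaCl, 1 mM MgCl2, 1 mM DTT.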

KRAS (WT) = molecular target: T1, KRAS (WT) (Homo sapiens, UniProt P01116); test: In-vitro RAS-RAF binding assay (RRB), HTRF/FRET; assay type: biochemical; conditions: Table 2, average of multiple runs of each compound; read-out: Inhibition of RAS-RAF Binding (in-vitro) KRAS (WT) IC50
T1 construct: Biotinylated KRAS protein amino acids 1-169 (produced at Erasca); made in house
Summary of the method: as §1

[1] = molecular target: T2, KRas G12D fused to HiBiT peptide (Homo sapiens, UniProt P01116, G12D); test: ASPC-1 HiBit assay to determine G12D degradation; assay type: cell-based; conditions: AsPC-1 HiBiT cells, 24-hour incubation; read-out: ASPC-1 HiBit DC50 (C)
T2 construct: endogenous in cells; host or cells: AsPC-1 HiBiT knock-in single clone (Cas9 RNP + ssODN)
Experimental: Compounds presented herein induce degradation of the KRas G12D (KRasG12D) upon treatment of engineered cancer cell line.
The degradation of the KRasG12D in cellular environment was measured using engineered homozygous KRasG12D AsPC-1 cell line in which KRas G12D was fused to luminescent HiBiT peptide at the N-terminal. The small (1.3 kDa) HiBiT peptide complements with high affinity to a larger (18 kDa) subunit evolved from NanoLuc (termed LgBiT). The resulting complex (i.e., reconstituted luciferase enzyme) generates bright luminescence that translates to high sensitivity (1 amol), broad dynamic range (four orders of magnitude), and rapid kinetics for real time quantitation.
To generate HiBit KRasG12D knock-in cell line, sgRNA (SEQ. ID NO: 1) and ssODN (SEQ. ID NO: 2) were designed and synthesized at GenScript.
RNP complex was generated by mixing of 100 pmol of Cas9 protein to PCR tubes containing 300 pmol sgRNA incubating the resultant complex at room temperature for 20 min. […] ssODN was added to RNP complex slowly and RNP-ssODN complex was incubated at room temperature for 10 min. RNP-ssODN complex was mixed with […] of AsPC-1 cells (1×10^6 cells total) and electroporated using Nucleofactor (Program CM-150). Cells were then incubated at ambient temperature for 5 min and transferred to a six-well plate containing 2 ml growth medium.
To select pools with the highest luminescence signal, 10^4 cells of parental AsPC-1 and transfected pools were plated in solid white 384-well tissue culture plates. 24 hours after seeding, HiBiT was detected using the Nano-Glo HiBiT Lytic Detection System (Promega) following manufacturer's instructions. Briefly, […] of Nano-Glo HiBiT Lytic Detection Reagent was added directly to the cells and mixed by inversion before recording luminescence on an Envision (Perkin-Elmer) with 0.5 s integration time.
Single clones were isolated from stable pool by limited dilution method and presence of HiBiT knock-in was verified by TA cloning and subsequent sequencing. Additionally, western blotting analysis was conducted to confirm selection of single clones with high luminescence signal.
For DC50S measurements, AsPC-1 HiBiT single clone cells were grown in RPMI 1640 medium (Invitrogen 22400-089) supplemented with 10% fetal bovine serum. Cells were seeded in 384-well tissue culture plates at a density of 7,000 cells/well and allowed to attach for 24 hours.
Test compounds were distributed directly into assay plate with the adjustment for DMSO concentration using Tecan HP D300e. For most of the experiments, the final concentration of compounds starts from 10 μM, 3-fold dilution dose response and 10 doses. […] DMSO final concentration is 1%. Each concentration of exemplary compound was tested as singleton. The negative control wells were cells with DMSO only, and the positive control wells were cells with […] inhibitor.
Following 24-hour incubation with the compounds plate and Nano-Glo® HiBiT Lytic reagents were equilibrated to room temperature. 20 μL of HiBiT Lytic reagent were added to each well. The assay plate was incubated on digital microplate shaker (350 rpm) for 20 min followed by centrifugation at 500 g for 1 min. Luminescence was recorded using Envision (Perkin-Elmer) using aperture 384-L1 with 0.1 s integration time.
HiBiT signal are used to calculate the % degradation at given compound concentration using the following formula:
% Degradation=(1−(Sample HiBiT signal−Ave Min signal)/(Ave Max signal−Ave Min signal))*100%
For DC50 calculation, the data with the hook effect were removed first and DC50S was reported using a 4-parameter fit of dose response curve using GraphPad in those cases where maximum % degradation was >50% and Minimal % degradation was <50%. The decrease in DC50 reflects that the exemplary compound led to a higher level of degradation of KRasG12D than another exemplary compound at specific timepoint of treatment of cancer cell line. […]

T2 sequence (P01116 1-188 isoform P01116-2 G12D): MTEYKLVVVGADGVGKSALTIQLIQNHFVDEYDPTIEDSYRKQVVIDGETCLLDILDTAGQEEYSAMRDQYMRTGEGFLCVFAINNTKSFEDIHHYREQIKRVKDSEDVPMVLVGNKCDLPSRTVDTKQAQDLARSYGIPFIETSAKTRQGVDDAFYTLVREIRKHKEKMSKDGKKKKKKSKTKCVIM
T1 sequence (P01116 1-169 isoform P01116-2): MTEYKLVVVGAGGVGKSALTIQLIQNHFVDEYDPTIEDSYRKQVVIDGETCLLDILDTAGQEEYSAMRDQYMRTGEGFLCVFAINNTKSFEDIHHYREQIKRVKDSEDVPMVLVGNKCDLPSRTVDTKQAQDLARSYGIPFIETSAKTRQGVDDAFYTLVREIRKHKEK
KRAS G12D, sequence (P01116 1-169 isoform P01116-2 G12D): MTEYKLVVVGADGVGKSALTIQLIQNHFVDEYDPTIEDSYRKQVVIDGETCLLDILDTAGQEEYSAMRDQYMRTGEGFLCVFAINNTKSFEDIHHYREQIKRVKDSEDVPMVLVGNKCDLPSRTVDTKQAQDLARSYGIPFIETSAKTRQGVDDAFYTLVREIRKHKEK

Row | Compound | IC50 (KRAS G12D) | IC50 (KRAS (WT)) | DC50 [1]
1 | CC(C)[C@@H](C(=O)N1C[C@H](O)C[C@H]1C(=O)N[C@@H](C)c1ccc(-c2c(F)cc(F)cc2F)cc1)c1cc(OCC2(C)CCN(CCOc3nc(N4CC5CCC(C4)N5)c4cc(C(F)(F)F)c(-c5ccc(F)c6sc(N)c(C#N)c56)c(F)c4n3)CC2)no1 [Example 76, (2S,4R)-1-((2R)-2-(3-((1-(2-((7-(2-amino-3-cyano-7-fluorobenzo[b]thiophen-4-yl)-4-(3,8-diazabicyclo[3.2.1]octan-3-yl)-8-fluoro-6-(trifluoromethyl)quinazolin-2-yl)oxy)ethyl)-4-methylpiperidin-4-yl)methoxy)isoxazol-5-yl)-3-methylbutanoyl)-4-hydroxy-N-((S)-1-(2′,4′,6′-trifluoro-[1,1′-biphenyl]-4-yl)ethyl)pyrrolidine-2-carboxamide] | 21.9 nM | 1900 nM | 259 nM
2 | C#Cc1c(F)ccc2cc(O)cc(-c3ncc4c(N5CC6CCC(C5)N6)nc(OCCN5CCC(COc6cc(C(C(=O)N7C[C@H](O)C[C@H]7C(=O)N[C@@H](C)c7ccc(-c8scnc8C)cc7)C(C)C)on6)CC5)nc4c3F)c12 (stereo in doubt) [Example 35, (2S,4R)-1-((2R)-2-(3-((1-(2-((4-(3,8-diazabicyclo[3.2.1]octan-3-yl)-7-(8-ethynyl-7-fluoro-3-hydroxynaphthalen-1-yl)-8-fluoropyrido[4,3-d]pyrimidin-2-yl)oxy)ethyl)piperidin-4-yl)methoxy)isoxazol-5-yl)-3-methylbutanoyl)-4-hydroxy-N—((S)-1-(4-(4-methylthiazol-5-yl)phenyl)ethyl)pyrrolidine-2-carboxamide] | 12.1 nM | 196 nM | 467 nM
3 | C[C@H](NC(=O)[C@@H]1C[C@@H](O)CN1C(=O)[C@@H](NC(=O)CCOCCCN1CCC[C@H]1COc1nc(N2CC3CCC(C2)N3)c2cc(C(F)(F)F)c(-c3ccc(F)c4sc(N)c(C#N)c34)c(F)c2n1)C(C)(C)C)c1ccc(-c2c(F)ccc(F)c2F)cc1 [Example 93, (2S,4R)-1-((2S)-2-(3-(3-((2S)-2-((((7S)-7-(2-amino-3-cyano-7-fluorobenzo [b]thiophen-4-yl)-4-(3,8-diazabicyclo [3.2.1]octan-3-yl)-8-fluoro-6-(trifluoromethyl)quinazolin-2-yl)oxy)methyl)pyrrolidin-1-yl)propoxy)propanamido)-3,3-dimethylbutanoyl)-4-hydroxy-N—((S)-1-(2′,3′,6′-trifluoro-[1,1′-biphenyl]-4-yl)ethyl)pyrrolidine-2-carboxamide] | 9.1 nM | 54 nM | 34 nM
4 | C#Cc1c(F)ccc2cc(O)cc(-c3ncc4c(N5CC6CCC(C5)N6)nc(OCCN5CCC(Oc6cc([C@H](C(=O)N7C[C@H](O)C[C@H]7C(=O)N[C@@H](C)c7ccc(-c8c(F)cccc8F)cc7)C(C)C)on6)CC5)nc4c3F)c12 [Example 100, (2S,4R)-1-((2R)-2-(3-((1-(2-((4-(3,8-diazabicyclo[3.2.1]octan-3-yl)-7-(8-ethynyl-7-fluoro-3-hydroxynaphthalen-1-yl)-8-fluoropyrido[4,3-d]pyrimidin-2-yl)oxy)ethyl)piperidin-4-yl)oxy)isoxazol-5-yl)-3-methylbutanoyl)-N—((S)-1-(2′,6′-difluoro-[1,1′-biphenyl]-4-yl)ethyl)-4-hydroxypyrrolidine-2-carboxamide] | 14 nM | 2070 nM | 197 nM
5 | CC(C)[C@@H](C(=O)N1C[C@H](O)C[C@H]1C(=O)N[C@@H](C)c1ccc(-c2c(F)cc(F)cc2F)cc1)c1cc(OCC2(C)CCN(CCOc3nc(N4CC5CCC(C4)N5)c4cc(Cl)c(-c5ccc(F)c6sc(N)c(C#N)c56)c(F)c4n3)CC2)no1 [Example 72, (2S,4R)-1-((2R)-2-(3-((1-(2-((7-(2-amino-3-cyano-7-fluorobenzo[b]thiophen-4-yl)-4-(3,8-diazabicyclo[3.2.1]octan-3-yl)-6-chloro-8-fluoroquinazolin-2-yl)oxy)ethyl)-4-methylpiperidin-4-yl)methoxy)isoxazol-5-yl)-3-methylbutanoyl)-4-hydroxy-N-((S)-1-(2′,4′,6′-trifluoro-[1,1′-biphenyl]-4-yl)ethyl)pyrrolidine-2-carboxamide] | 29.4 nM | 6730 nM | 528 nM

The remaining compounds from weak to strong by IC50 (KRAS G12D), led by results:

Row | IC50 (KRAS G12D) | IC50 (KRAS (WT)) | DC50 [1] | Compound
6 | 25.5 nM | 1670 nM | 294 nM | CC(C)[C@@H](C(=O)N1C[C@H](O)C[C@H]1C(=O)N[C@@H](C)c1ccc(-c2c(F)cc(F)cc2F)cc1)c1cc(OCC2CCN(CCOc3nc(N4CC5CCC(C4)N5)c4cc(C(F)(F)F)c(-c5ccc(F)c6sc(N)c(C#N)c56)c(F)c4n3)CC2)no1 [Example 78, (2S,4R)-1-((2R)-2-(3-((1-(2-((7-(2-amino-3-cyano-7-fluorobenzo[b]thiophen-4-yl)-4-(3,8-diazabicyclo[3.2.1]octan-3-yl)-8-fluoro-6-(trifluoromethyl)quinazolin-2-yl)oxy)ethyl)piperidin-4-yl)methoxy)isoxazol-5-yl)-3-methylbutanoyl)-4-hydroxy-N-((S)-1-(2′,4′,6′-trifluoro-[1,1′-biphenyl]-4-yl)ethyl)pyrrolidine-2-carboxamide]
7 | 16 nM | 1430 nM | 107 nM | C#Cc1c(F)ccc2cc(O)cc(-c3ncc4c(N5CC6CCC(C5)N6)nc(OCCN5CCC6(CC5)CN(c5cc([C@H](C(=O)N7C[C@H](O)C[C@H]7C(=O)N[C@@H](C)c7ccc(-c8cccc(F)c8F)cc7)C(C)C)on5)C6)nc4c3F)c12 [Example 98, (2S,4R)-1-((2R)-2-(3-(7-(2-((4-(3,8-diazabicyclo[3.2.1]octan-3-yl)-7-(8-ethynyl-7-fluoro-3-hydroxynaphthalen-1-yl)-8-fluoropyrido[4,3-d]pyrimidin-2-yl)oxy)ethyl)-2,7-diazaspiro[3.5]nonan-2-yl)isoxazol-5-yl)-3-methylbutanoyl)-N—((S)-1-(2′,3′-difluoro-[1,1′-biphenyl]-4-yl)ethyl)-4-hydroxypyrrolidine-2-carboxamide]
8 | 15.6 nM | 2830 nM | 244 nM | CC(C)[C@@H](C(=O)N1C[C@H](O)C[C@H]1C(=O)N[C@@H](C)c1ccc(-c2c(F)cccc2F)cc1)c1cc(OCC2CCN(CCOc3nc(N4CC5CCC(C4)N5)c4cc(Cl)c(-c5ccc(F)c6sc(N)c(C#N)c56)c(F)c4n3)CC2)no1 [Example 17, (2S,4R)-1-((2R)-2-(3-((1-(2-((7-(2-amino-3-cyano-7-fluorobenzo[b]thiophen-4-yl)-4-(3,8-diazabicyclo[3.2.1]octan-3-yl)-6-chloro-8-fluoroquinazolin-2-yl)oxy)ethyl)piperidin-4-yl)methoxy)isoxazol-5-yl)-3-methylbutanoyl)-N—((S)-1-(2′,6′-difluoro-[1,1′-biphenyl]-4-yl)ethyl)-4-hydroxypyrrolidine-2-carboxamide]

Source: patent US20240293558A1, “KRAS INHIBITOR CONJUGATES” (Erasca, Inc., priority 2021, published 2024)
